We go through ten molecules from ChEMBL document CHEMBL3046166, “Synthesis and biological evaluation of some new Thiazolo[3,2-a][1,3,5]triazine derivatives” (2012).

The nature of assay [1]: Induction of DNA fragmentation using ethidium bromide staining by agarose gel electrophoresis.
The next assay deals with Escherichia coli. Nature of the assay: Antibacterial activity against Escherichia coli after 24 hr by agar diffusion technique. It counts as functional. On the technique in general: Agar diffusion results depend on both activity and mobility in agar.

Calls of active or inactive are those of the source. No cut-off for these calls is given here.

With `N=C1NC(=O)CS1`, the result in assay [1] was Active. Besides, the “diameter of the inhibition zone (DIZ)” value in the assay with Escherichia coli was found to be 14 mm.

Consider `Cc1ccc(N/N=C2/SC3=NCN(c4ccccc4)CN3C2=O)cc1`, for which the result in assay [1] was Active. In addition, the “diameter of the inhibition zone (DIZ)” value in the assay with Escherichia coli was found to be 13 mm.

In the case of `O=c1/c(=C/c2ccc(/C=c3/sc4n(c3=O)CN(c3ccccc3)CN=4)cc2)sc2n1CN(c1ccccc1)CN=2`, the outcome in assay [1] was Active. Moreover, in the assay with Escherichia coli, the “diameter of the inhibition zone (DIZ)” value is 14 mm.

Turning to `O=c1/c(=C/c2ccc3c(c2)OCO3)sc2n1CN(c1ccccc1)CN=2`, the result in assay [1] was Active. In addition, the “diameter of the inhibition zone (DIZ)” value in the assay on Escherichia coli is 14 mm.

Turning to `CN(C)/C=c1\sc2n(c1=O)CN(c1ccccc1)CN=2`, the result in assay [1] was Active. Moreover, the “diameter of the inhibition zone (DIZ)” value in the assay on Escherichia coli was found to be 26 mm.

Consider `O=c1/c(=C/c2ccc(Cl)cc2)sc2n1CN(c1ccccc1)CN=2`, for which the outcome in assay [1] was Active. For the same molecule, the “diameter of the inhibition zone (DIZ)” value with Escherichia coli is 14 mm.

Consider `N=C1NC(=O)/C(=C/c2ccccc2)S1`, for which the outcome in assay [1] was Active. In addition, the “diameter of the inhibition zone (DIZ)” value in the assay with Escherichia coli turned out to be 15 mm.

On to `O=C1CSC2=NCN(c3ccccc3)CN12`, for which, in assay [1], the outcome was Active. The “diameter of the inhibition zone (DIZ)” value with Escherichia coli came to 26 mm.

With `CC1(C)S[C@@H]2[C@H](NC(=O)[C@H](N)c3ccccc3)C(=O)N2[C@H]1C(=O)O` [AMPICILLIN], the “diameter of the inhibition zone (DIZ)” value with Escherichia coli amounted to 21 mm.

Take `CSC(=S)C1Sc2nc(=S)sc(=S)n2C1=O` (centres undefined): in assay [1], the outcome was Active. Also, in the assay on Escherichia coli, the “diameter of the inhibition zone (DIZ)” value is given as 14 mm.
